Assay results from ChEMBL document CHEMBL4417633, “Inhibitory polypeptides specific to WNT inhibitors” (2017).
Where a SMILES comes first, the peptide text is derived from it.

Legend:
[1] = biological target: T1, Dickkopf-related protein 1 (Homo sapiens, UniProt O94907); test: Inhibition of biotin-labeled human recombinant DKK1 assessed as reduction in DKK1 interaction with LRP-6/Fc incubated overnight by chemiluminescence based Alpha-screen assay
T1 sequence (O94907 whole entry): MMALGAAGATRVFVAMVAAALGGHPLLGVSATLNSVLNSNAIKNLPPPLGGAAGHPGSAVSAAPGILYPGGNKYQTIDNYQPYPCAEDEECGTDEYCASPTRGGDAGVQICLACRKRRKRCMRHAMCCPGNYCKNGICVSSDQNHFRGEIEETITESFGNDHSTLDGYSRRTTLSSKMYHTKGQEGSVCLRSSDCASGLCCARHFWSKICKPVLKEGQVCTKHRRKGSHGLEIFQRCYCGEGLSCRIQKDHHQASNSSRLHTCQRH

[2] = biological target: T2, Dickkopf WNT-signaling pathway inhibitor 1 (Rattus norvegicus, UniProt A6I0Z0); test: Inhibition of biotin-labeled rat recombinant DKK1 assessed as reduction in DKK1 interaction with LRP-6/Fc incubated overnight by chemiluminescence based Alpha-screen assay
T2 sequence (A6I0Z0 whole entry): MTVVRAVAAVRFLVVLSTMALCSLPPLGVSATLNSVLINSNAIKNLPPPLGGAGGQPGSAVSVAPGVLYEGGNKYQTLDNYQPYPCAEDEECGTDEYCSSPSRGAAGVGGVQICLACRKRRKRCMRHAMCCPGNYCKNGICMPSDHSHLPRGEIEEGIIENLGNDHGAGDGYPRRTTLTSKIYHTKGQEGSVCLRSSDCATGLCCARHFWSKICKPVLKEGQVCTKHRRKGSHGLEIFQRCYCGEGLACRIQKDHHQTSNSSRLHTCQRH

Structure (SMILES) | IC50 [1] [nM] | IC50 [2] [nM]
CSCC[C@H](NC(=O)[C@@H]1CCCN1C(=O)[C@H](Cc1ccc(O)cc1)NC(=O)[C@H](CS)NC(=O)[C@H](Cc1cnc[nH]1)NC(=O)[C@H](CC(N)=O)NC(=O)[C@H](Cc1cnc[nH]1)NC(=O)[C@H](CC(N)=O)NC(=O)[C@H](CCCNC(=N)N)NC(=O)[C@H](CS)NC(=O)[C@H](CCCNC(=N)N)NC(=O)[C@H](Cc1ccccc1)NC(=O)[C@H](Cc1ccc(O)cc1)NC(=O)[C@H](CO)NC(=O)[C@H](C)NC(=O)[C@@H]1CCCN1C(=O)[C@@H](N)CS)C(=O)N[C@@H](CCC(=O)O)C(=O)N[C@@H](Cc1c[nH]c2ccccc12)C(=O)N[C@@H](CCCNC(=N)N)C(=O)N[C@@H](CS)C(=O)N[C@@H](CC(=O)O)C(=O)NCC(=O)N[C@@H](Cc1ccccc1)C(=O)N[C@@H](CC(=O)O)C(=O)N[C@@H](CC(=O)O)C(=O)N[C@@H](CS)C(=O)N[C@@H](CCC(=O)O)C(=O)N[C@@H](CC(=O)O)C(=O)NCC(=O)N[C@@H](CO)C(=O)N[C@@H](CC(=O)O)C(=O)N[C@@H](CCC(=O)O)C(=O)N[C@@H](CCC(N)=O)C(=O)NCC(=O)N[C@@H](CS)C(=O)N1CCC[C@H]1C(=O)N[C@@H](Cc1ccc(O)cc1)C(=O)N[C@@H](CCCNC(=N)N)C(=O)N[C@H](C(=O)O)[C@@H](C)O (H-CPASYFRCRNHNHCYPMEWRCDGFDDCEDGSDEQGCPYRT-OH) | ≤ 1 | ≤ 1
CC[C@H](C)[C@H](NC(=O)[C@H](CCCCN)NC(=O)[C@H](CC(=O)O)NC(=O)[C@@H]1CCCN1C(=O)[C@H](CS)NC(=O)[C@H](CCSC)NC(=O)[C@H](Cc1ccccc1)NC(=O)[C@H](CCC(=O)O)NC(=O)[C@H](CC(N)=O)NC(=O)[C@H](CO)NC(=O)[C@@H]1CCCN1C(=O)[C@@H](N)CS)C(=O)N[C@@H](CS)C(=O)N[C@@H](Cc1ccccc1)C(=O)N1CCC[C@H]1C(=O)N[C@@H](CC(C)C)C(=O)N[C@@H](CO)C(=O)N[C@@H](Cc1ccccc1)C(=O)N[C@@H](CC(C)C)C(=O)N[C@@H](CS)C(=O)N[C@@H](CC(=O)O)C(=O)NCC(=O)N[C@@H](CCC(=O)O)C(=O)N[C@@H](CC(N)=O)C(=O)N[C@@H](CC(=O)O)C(=O)N[C@@H](CS)C(=O)N[C@@H](CCC(=O)O)C(=O)N[C@@H](CC(=O)O)C(=O)NCC(=O)N[C@@H](CO)C(=O)N[C@@H](CC(=O)O)C(=O)N[C@@H](CCC(=O)O)C(=O)N[C@@H](CC(=O)O)C(=O)N[C@@H](Cc1ccc(O)cc1)C(=O)N[C@@H](CS)C(=O)N1CCC[C@H]1C(=O)N[C@@H](CO)C(=O)N[C@@H](CCCNC(=N)N)C(=O)N[C@H](C(=O)O)[C@@H](C)O (H-CPSNEFMCPDKICFPLSFLCDGENDCEDGSDEDYCPSRT-OH) | ≤ 1 | ≤ 1
CSCC[C@H](NC(=O)[C@H](Cc1ccccc1)NC(=O)[C@H](CCC(=O)O)NC(=O)[C@H](Cc1ccc(O)cc1)NC(=O)[C@H](CO)NC(=O)[C@@H]1CCCN1C(=O)[C@@H](N)CS)C(=O)N[C@@H](CS)C(=O)N[C@@H](C)C(=O)N[C@@H](CC(=O)O)C(=O)N[C@@H](CCCCN)C(=O)N[C@@H](CCSC)C(=O)N[C@@H](CS)C(=O)N[C@@H](Cc1ccccc1)C(=O)N1CCC[C@H]1C(=O)N[C@@H](CC(C)C)C(=O)N[C@@H](CC(=O)O)C(=O)N[C@@H](Cc1ccccc1)C(=O)N[C@@H](CC(C)C)C(=O)N[C@@H](CS)C(=O)N[C@@H](CC(=O)O)C(=O)NCC(=O)N[C@@H](CCC(=O)O)C(=O)N[C@@H](CC(N)=O)C(=O)N[C@@H](CC(=O)O)C(=O)N[C@@H](CS)C(=O)N[C@@H](CCC(=O)O)C(=O)N[C@@H](CC(=O)O)C(=O)NCC(=O)N[C@@H](CO)C(=O)N[C@@H](CC(=O)O)C(=O)N[C@@H](CCC(=O)O)C(=O)N[C@@H](CC(=O)O)C(=O)N[C@@H](Cc1ccc(O)cc1)C(=O)N[C@@H](CS)C(=O)N1CCC[C@H]1C(=O)N[C@@H](CO)C(=O)N[C@@H](CCCNC(=N)N)C(=O)N[C@H](C(=O)O)[C@@H](C)O (H-CPSYEFMCADKMCFPLDFLCDGENDCEDGSDEDYCPSRT-OH) | ≤ 1 | ≤ 1
CSCC[C@H](NC(=O)[C@@H]1CCCN1C(=O)[C@H](Cc1ccc(O)cc1)NC(=O)[C@H](CS)NC(=O)[C@H](CO)NC(=O)[C@H](CC(N)=O)NC(=O)[C@H](CC(N)=O)NC(=O)[C@H](CC(N)=O)NC(=O)[C@H](CCCNC(=N)N)NC(=O)[C@H](CS)NC(=O)[C@H](CCC(N)=O)NC(=O)[C@H](Cc1ccccc1)NC(=O)[C@H](Cc1ccc(O)cc1)NC(=O)[C@H](CO)NC(=O)[C@H](C)NC(=O)[C@@H]1CCCN1C(=O)[C@@H](N)CS)C(=O)N[C@@H](CCC(=O)O)C(=O)N[C@@H](Cc1c[nH]c2ccccc12)C(=O)N[C@@H](CCCNC(=N)N)C(=O)N[C@@H](CS)C(=O)N[C@@H](CC(=O)O)C(=O)NCC(=O)N[C@@H](Cc1ccccc1)C(=O)N[C@@H](CCC(=O)O)C(=O)N[C@@H](CC(=O)O)C(=O)N[C@@H](CS)C(=O)N[C@@H](CCC(=O)O)C(=O)N[C@@H](CC(=O)O)C(=O)NCC(=O)N[C@@H](CO)C(=O)N[C@@H](CC(=O)O)C(=O)N[C@@H](CCC(=O)O)C(=O)N[C@@H](CCCNC(=N)N)C(=O)NCC(=O)N[C@@H](CS)C(=O)N1CCC[C@H]1C(=O)N[C@@H](Cc1ccc(O)cc1)C(=O)N[C@@H](CCCNC(=N)N)C(=O)N[C@H](C(=O)O)[C@@H](C)O (H-CPASYFQCRNNNSCYPMEWRCDGFEDCEDGSDERGCPYRT-OH) | ≤ 1 | ≤ 1

Results, then the compound that gave them:

IC50 [1] [nM] | IC50 [2] [nM] | Structure (SMILES)
≤ 1 | ≤ 1 | CC[C@H](C)[C@H](NC(=O)[C@H](CC(C)C)NC(=O)[C@@H]1CCCN1C(=O)[C@H](Cc1ccccc1)NC(=O)[C@H](CS)NC(=O)[C@H](CCSC)NC(=O)[C@H](CCCCN)NC(=O)[C@H](CC(=O)O)NC(=O)[C@@H]1CCCN1C(=O)[C@H](CS)NC(=O)[C@H](CCSC)NC(=O)[C@H](Cc1ccccc1)NC(=O)[C@H](CCC(=O)O)NC(=O)[C@H](CC(N)=O)NC(=O)[C@H](CC(C)C)NC(=O)[C@@H]1CCCN1C(=O)[C@@H](N)CS)C(=O)N[C@@H](Cc1ccccc1)C(=O)N[C@@H](CC(C)C)C(=O)N[C@@H](CS)C(=O)N[C@@H](CC(=O)O)C(=O)NCC(=O)N[C@@H](CCC(=O)O)C(=O)N[C@@H](CC(N)=O)C(=O)N[C@@H](CC(=O)O)C(=O)N[C@@H](CS)C(=O)N[C@@H](Cc1cnc[nH]1)C(=O)N[C@@H](CC(=O)O)C(=O)NCC(=O)N[C@@H](CO)C(=O)N[C@@H](CC(=O)O)C(=O)N[C@@H](CCC(=O)O)C(=O)N[C@@H](C)C(=O)N[C@@H](Cc1ccc(O)cc1)C(=O)N[C@@H](CS)C(=O)N1CCC[C@H]1C(=O)N[C@@H](CO)C(=O)N[C@@H](CCCNC(=N)N)C(=O)N[C@H](C(=O)O)[C@@H](C)O (H-CPLNEFMCPDKMCFPLIFLCDGENDCHDGSDEAYCPSRT-OH)
≤ 1 | ≤ 1 | CSCC[C@H](NC(=O)[C@@H]1CCCN1C(=O)[C@H](Cc1ccc(O)cc1)NC(=O)[C@H](CS)NC(=O)[C@H](Cc1cnc[nH]1)NC(=O)[C@H](CC(N)=O)NC(=O)[C@H](Cc1ccc(O)cc1)NC(=O)[C@H](CC(N)=O)NC(=O)CNC(=O)[C@H](CS)NC(=O)[C@H](CCC(N)=O)NC(=O)[C@H](Cc1ccccc1)NC(=O)[C@H](Cc1ccc(O)cc1)NC(=O)[C@H](CO)NC(=O)[C@H](C)NC(=O)[C@@H]1CCCN1C(=O)[C@@H](N)CS)C(=O)N[C@@H](CCC(=O)O)C(=O)N[C@@H](Cc1c[nH]c2ccccc12)C(=O)N[C@@H](CCCNC(=N)N)C(=O)N[C@@H](CS)C(=O)N[C@@H](CC(=O)O)C(=O)NCC(=O)N[C@@H](Cc1ccccc1)C(=O)N[C@@H](CC(C)C)C(=O)N[C@@H](CC(=O)O)C(=O)N[C@@H](CS)C(=O)N[C@H](C(=O)N[C@@H](CC(=O)O)C(=O)NCC(=O)N[C@@H](CO)C(=O)N[C@@H](CC(=O)O)C(=O)N[C@@H](CCC(=O)O)C(=O)N[C@@H](CCCCN)C(=O)NCC(=O)N[C@@H](CS)C(=O)N1CCC[C@H]1C(=O)N[C@@H](Cc1ccc(O)cc1)C(=O)N[C@@H](CCCNC(=N)N)C(=O)N[C@H](C(=O)O)[C@@H](C)O)C(C)C (H-CPASYFQCGNYNHCYPMEWRCDGFLDCVDGSDEKGCPYRT-OH)
≤ 1 | ≤ 1 | CSCC[C@H](NC(=O)[C@@H]1CCCN1C(=O)[C@H](Cc1ccc(O)cc1)NC(=O)[C@H](CS)NC(=O)[C@H](Cc1cnc[nH]1)NC(=O)[C@@H]1CCCN1C(=O)[C@H](Cc1cnc[nH]1)NC(=O)[C@H](CO)NC(=O)CNC(=O)[C@H](CS)NC(=O)[C@H](CCC(N)=O)NC(=O)[C@H](Cc1ccccc1)NC(=O)[C@H](Cc1ccc(O)cc1)NC(=O)[C@H](CO)NC(=O)[C@H](C)NC(=O)[C@@H]1CCCN1C(=O)[C@@H](N)CS)C(=O)N[C@@H](CCC(=O)O)C(=O)N[C@@H](Cc1c[nH]c2ccccc12)C(=O)N[C@@H](CCCNC(=N)N)C(=O)N[C@@H](CS)C(=O)N[C@@H](CC(=O)O)C(=O)NCC(=O)N[C@@H](Cc1ccccc1)C(=O)N[C@@H](CCC(N)=O)C(=O)N[C@@H](CC(=O)O)C(=O)N[C@@H](CS)C(=O)N[C@@H](CCC(=O)O)C(=O)N[C@@H](CC(=O)O)C(=O)NCC(=O)N[C@@H](CO)C(=O)N[C@@H](CC(=O)O)C(=O)N[C@@H](CCC(=O)O)C(=O)N[C@@H](CC(C)C)C(=O)NCC(=O)N[C@@H](CS)C(=O)N1CCC[C@H]1C(=O)N[C@@H](Cc1ccc(O)cc1)C(=O)N[C@@H](CCCNC(=N)N)C(=O)N[C@H](C(=O)O)[C@@H](C)O (H-CPASYFQCGSHPHCYPMEWRCDGFQDCEDGSDELGCPYRT-OH)
